Test results from patent US20230011869A1 (Hoffmann-La Roche Inc., priority 2018, published 2023).
Where a name gives a salt, the structure may show the parent alone. Read-outs that look alike come from different tables or passages of the source.

Tested on: Acinetobacter baumannii ATCC17961
Assay: Antimicrobial susceptibility testing: 90% growth inhibitory concentration (IC90) determination, Iso-Sensitest broth
Type: cell-based
Conditions: Acinetobacter baumannii, ATCC17961, 16 h, read-out: ATCC17961 IC90
Procedure: Antimicrobial Susceptibility Testing:
90% Growth Inhibitory Concentration (IC90) Determination
The in vitro antimicrobial activity of the compounds was determined according to the following procedure:
The assay used a 10-points Iso-Sensitest broth medium to measure quantitatively the in vitro activity of the compounds against Acinetobacter baumannii ATCC17978 and Acinetobacter baumannii ATCC17961.
Stock compounds in DMSO were serially twofold diluted (e.g. range from 50 to 0.097 μM final concentration) in 384 wells microtiter plates and inoculated with 49 μl the bacterial suspension in Iso-Sensitest medium to have a final cell concentration of 5×10^(5) CFU/ml in a final volume/well of 50 ul/well. Microtiter plates were incubated at 35±2° C.
Bacterial cell growth was determined with the measurement of optical density at λ=600 nm each 20 minutes over a time course of 16 h. Growth inhibition was calculated during the logarithmic growth of the bacterial cells with determination of the concentration inhibiting 50% (IC50) and 90% (IC90) of the growth.
Table 1 provides the 90% growth inhibitory concentrations (IC90) in micromoles per liter of the compounds of present invention obtained against the strain Acinetobacter baumannii ATCC17978 and Acinetobacter baumannii ATCC17961.

[1] = 90% growth inhibitory concentration, Acinetobacter baumannii ATCC17961, Iso-Sensitest broth, OD 600 nm over 16 h

IC90 [1] [nM] | Compound | IC90 [nM]
85 | COc1ccc(-c2cnc3c(Nc4ccc(C(=O)N5CCN(C(=O)[C@@H]6C[C@H](F)CN6)CC5)c(C)c4)nccn23)c(F)c1F [Example 83, (4-(4-((3-(2,3-difluoro-4-methoxyphenyl)imidazo[1,2-a]pyrazin-8-yl)amino)-2-methylbenzoyl)piperazin-1-yl)((2S,4S)-4-fluoropyrrolidin-2-yl)methanone hydrochloride] | 
 | COC[C@@H]1CN[C@H](C(=O)N2CCN(C(=O)c3ccc(Nc4nccn5c(-c6ccc(OC)c(F)c6F)cnc45)cc3C)CC2)C1 [Example 84, (4-(4-((3-(2,3-difluoro-4-methoxyphenyl)imidazo[1,2-a]pyrazin-8-yl)amino)-2-methylbenzoyl)piperazin-1-yl)((2S,4S)-4-(methoxymethyl)pyrrolidin-2-yl)methanone hydrochloride] | 76
166 | Cc1cc(Nc2nccn3c(-c4ccc(OCC#N)c(F)c4F)cnc23)ccc1C(=O)N1CCC(C(=O)N2CC3(CNC3)C2)CC1 [Example 87, 2-(4-(8-((4-(4-(2,6-diazaspiro[3.3]heptane-2-carbonyl)piperidine-1-carbonyl)-3-methylphenyl)amino)imidazo[1,2-a]pyrazin-3-yl)-2,3-difluorophenoxy)acetonitrile] | 
195 | COc1ccc(-c2cnc3c(Nc4ccc(C(=O)N5CCC(C(=O)NCC(O)CNC(N)=O)CC5)c(C)c4)nccn23)c(F)c1F (centres unmarked) [Example 88, 1-(4-((3-(2,3-difluoro-4-methoxyphenyl)imidazo[1,2-a]pyrazin-8-yl)amino)-2-methylbenzoyl)-N-(2-hydroxy-3-ureidopropyl)piperidine-4-carboxamide] | 
72 | COc1ccc(-c2cnc3c(Nc4ccc(C(=O)N5CCC(C(=O)NCC(O)CN(C)C)CC5)c(C)c4)nccn23)c(F)c1F (centres unmarked) [Example 89, 1-(4-((3-(2,3-difluoro-4-methoxyphenyl)imidazo[1,2-a]pyrazin-8-yl)amino)-2-methylbenzoyl)-N-(3-(dimethylamino)-2-hydroxypropyl)piperidine-4-carboxamide] | 
116 | COc1ccc(-c2cnc3c(Nc4ccc(C(=O)N5CCC(C(=O)NCC(O)CN6CCNCC6)CC5)c(C)c4)nccn23)c(F)c1F (centres unmarked) [Example 90, 1-(4-((3-(2,3-difluoro-4-methoxyphenyl)imidazo[1,2-a]pyrazin-8-yl)amino)-2-methylbenzoyl)-N-(2-hydroxy-3-(piperazin-1-yl)propyl)piperidine-4-carboxamide hydrochloride] | 
98 | COc1ccc(-c2cnc3c(Nc4ccc(C(=O)N5CCN(C(=O)[C@@H]6C[C@@H](O)CN6)CC5)c(C)c4)nccn23)cc1Cl [Example 92, (4-(4-((3-(3-chloro-4-methoxyphenyl)imidazo[1,2-a]pyrazin-8-yl)amino)-2-methylbenzoyl)piperazin-1-yl)((2S,4R)-4-hydroxypyrrolidin-2-yl)methanone hydrochloride] | 
84 | COc1ccc(-c2cnc3c(Nc4ccc(C(=O)N5CCN(C(=O)[C@@H]6C[C@@H](O)CN6)CC5)c(C)c4)nccn23)c(F)c1Cl [Example 93, (4-(4-((3-(3-chloro-2-fluoro-4-methoxyphenyl)imidazo[1,2-a]pyrazin-8-yl)amino)-2-methylbenzoyl)piperazin-1-yl)((2S,4R)-4-hydroxypyrrolidin-2-yl)methanone hydrochloride] | 
69 | Cc1cc(Nc2nccn3c(-c4ccc(OCC#N)c(Cl)c4)cnc23)ccc1C(=O)N1CCN(C(=O)[C@@H]2C[C@@H](O)CN2)CC1 [Example 94, 2-(2-chloro-4-(8-((4-(4-((2S,4R)-4-hydroxypyrrolidin-2-carbonyl)piperazine-1-carbonyl)-3-methylphenyl)amino)imidazo[1,2-a]pyrazin-3-yl)phenoxy)acetonitrile] | 
33 | C#CCOc1ccc(-c2cnc3c(Nc4ccc(C(=O)N5CCC(CN)CC5)c(C)c4)nccn23)c(F)c1F [Example 121, [4-(aminomethyl)-1-piperidyl]-[4-[[3-(2,3-difluoro-4-prop-2-ynoxy-phenyl)imidazo[1,2-a]pyrazin-8-yl]amino]-2-methyl-phenyl]methanone; formic acid] | 
117 | COc1ccc(-c2cnc3c(Nc4ccc(C(=O)N5CCNCC5)c(C)c4)nccn23)c(F)c1F [Example 141, [4-[[3-(2,3-difluoro-4-methoxyphenyl)imidazo[1,2-a]pyrazin-8-yl]amino]-2-methylphenyl]-piperazin-1-ylmethanone] | 
50 | COc1ccc(-c2cnc3c(Nc4ccc(C(=O)N5CCN(C(=O)NCCN)CC5)c(C)c4)nccn23)c(Cl)c1F [Example 153, N-(2-aminoethyl)-4-[4-[[3-(2-chloro-3-fluoro-4-methoxy-phenyl)imidazo[1,2-a]pyrazin-8-yl]amino]-2-methyl-benzoyl]piperazine-1-carboxamide formate] | 
74 | Cc1cc(Nc2nccn3c(-c4ccc(OCC#N)c(F)c4Cl)cnc23)ccc1C(=O)N1CCN(C(=O)N2CCO[C@@H](CN)C2)CC1 [Example 158, 2-[4-[8-[4-[4-[(2S)-2-(aminomethyl)morpholine-4-carbonyl]piperazine-1-carbonyl]-3-methyl-anilino]imidazo[1,2-a]pyrazin-3-yl]-3-chloro-2-fluoro-phenoxy]acetonitrile formate] | 
35 | Cc1cc(Nc2nccn3c(-c4ccc(OCC#N)c(F)c4Cl)cnc23)ccc1C(=O)N1CCN(C(=O)NCCN)CC1 [Example 159, N-(2-aminoethyl)-4-[4-[[3-[2-chloro-4-(cyanomethoxy)-3-fluoro-phenyl]imidazo[1,2-a]pyrazin-8-yl]amino]-2-methyl-benzoyl]piperazine-1-carboxamide formate] | 
46 | Cc1cc(Nc2nccn3c(-c4ccc(OCC#N)c(F)c4Cl)cnc23)ccc1C(=O)N1CCN(C(=O)N[C@@H](C)CN)CC1 [Example 162, N-[(1S)-2-amino-1-methyl-ethyl]-4-[4-[[3-[2-chloro-4-(cyanomethoxy)-3-fluoro-phenyl]imidazo[1,2-a]pyrazin-8-yl]amino]-2-methyl-benzoyl]piperazine-1-carboxamide formate] | 
78 | COc1ccc(-c2cnc3c(Nc4ccc(C(=O)N5CCN(C(=O)N6CCN[C@@H](CO)C6)CC5)c(C)c4)nccn23)c(F)c1F [Example 172, (R)-(4-(4-((3-(2,3-difluoro-4-methoxyphenyl)imidazo[1,2-a]pyrazin-8-yl)amino)-2-methylbenzoyl)piperazin-1-yl)(3-(hydroxymethyl)piperazin-1-yl)methanone hydrochloride] | 
35 | Cc1cc(Nc2nccn3c(-c4ccc(OC(F)F)cc4)cnc23)ccc1C(=O)N1CCN(C(=O)C2CCNCC2)CC1 [Example 173, [4-[[3-[4-(difluoromethoxy)phenyl]imidazo[1,2-a]pyrazin-8-yl]amino]-2-methyl-phenyl]-[4-(piperidine-4-carbonyl)piperazin-1-yl]methanone hydrochloride] | 
41 | COc1ccc(-c2cnc3c(Nc4ccc(C(=O)N5CCN(C(=O)[C@@H]6C[C@@H](O)CN6)CC5)c(C)c4)nccn23)c(F)c1F [Example 184, [4-[[3-(2,3-difluoro-4-methoxy-phenyl)imidazo[1,2-a]pyrazin-8-yl]amino]-2-methyl-phenyl]-[4-[(2S,4R)-4-hydroxypyrrolidine-2-carbonyl]piperazin-1-yl]methanone hydrochloride] | 
51 | Cc1cc(Nc2nccn3c(-c4ccc(OCC#N)c(F)c4F)cnc23)ccc1C(=O)N1CCN(C(=O)[C@@H]2CCNC[C@@H]2O)CC1 [Example 188, 2-[2,3-difluoro-4-[8-[4-[4-[(3R,4R)-3-hydroxypiperidine-4-carbonyl]piperazine-1-carbonyl]-3-methyl-anilino]imidazo[1,2-a]pyrazin-3-yl]phenoxy] acetonitrile formate] | 
60 | Cc1cc(Nc2nccn3c(-c4ccc(OCC#N)c(F)c4F)cnc23)ccc1C(=O)N1CCN(C(=O)[C@H]2CCNC[C@H]2O)CC1 [Example 189, 2-[2,3-difluoro-4-[8-[4-[4-[(3S,4S)-3-hydroxypiperidine-4-carbonyl]piperazine-1-carbonyl]-3-methyl-anilino]imidazo[1,2-a]pyrazin-3-yl]phenoxy] acetonitrile formate] | 
46 | Cc1cc(Nc2nccn3c(-c4ccc(OCC#N)c(F)c4F)cnc23)ccc1C(=O)N1CCN(C(=O)[C@@H]2CCNC[C@H]2O)CC1 [Example 190, 2-[2,3-difluoro-4-[8-[4-[4-[(3S,4R)-3-hydroxypiperidine-4-carbonyl]piperazine-1-carbonyl]-3-methyl-anilino]imidazo[1,2-a]pyrazin-3-yl]phenoxy] acetonitrile formate] | 
73 | Cc1cc(Nc2nccn3c(-c4ccc(OCC#N)c(F)c4F)cnc23)ccc1C(=O)N1CCN(C(=O)[C@H]2CCNC[C@@H]2O)CC1 [Example 191, 2-[2,3-difluoro-4-[8-[4-[4-[(3R,4S)-3-hydroxypiperidine-4-carbonyl]piperazine-1-carbonyl]-3-methyl-anilino]imidazo[1,2-a]pyrazin-3-yl]phenoxy] acetonitrile formate] | 
52 | Cc1cc(Nc2nccn3c(-c4ccc(OCC#N)c(F)c4F)cnc23)ccc1C(=O)N1CCN(C(=O)C2CCNCC2)CC1 [Example 197, 2-[2,3-difluoro-4-[8-[3-methyl-4-[4-(piperidine-4-carbonyl)piperazine-1-carbonyl]anilino]imidazo [1,2-a]pyrazin-3-yl]phenoxy] acetonitrile formate] | 
